Test results taken from paper PMC4527783 (PLoS ONE, 2015).

Experiments:
[1] = target: Human NOP Rluc-tagged fusion protein (N/OFQ peptide receptor fused to Renilla luciferase) (human) (UniProt P41146)
[2] = target: NOP receptor; conditions: cited from earlier work
[3] = test system: mouse vas deferens; conditions: isolated mouse vas deferens; cited from earlier work
Description: On comparing the data with a wider range of pharmacological assays carried in vitro or in vivo, noticeable discrepancies are only apparent for a number of synthetic peptides that are known as NOP partial agonists. Such divergences are likely explained by the variations in stimulus/response coupling efficiency that characterize different pharmacological preparations. In fact, in accordance with classical receptor theory, the effect of a partial agonist can range from none to an almost full response, depending on the extent of amplification that the sensitivity of the signaling pathway exerts on ... || Also the estimates of antagonist potency derived from BRET analysis were in substantial agreement with similar determinations made in a variety of different pharmacological studies. […] We found, however, that a 3-fold increase in ...

Sequence of Human NOP Rluc-tagged fusion protein (N/OFQ peptide receptor fused to Renilla luciferase) (human) (P41146 whole entry, the tested form may be a part): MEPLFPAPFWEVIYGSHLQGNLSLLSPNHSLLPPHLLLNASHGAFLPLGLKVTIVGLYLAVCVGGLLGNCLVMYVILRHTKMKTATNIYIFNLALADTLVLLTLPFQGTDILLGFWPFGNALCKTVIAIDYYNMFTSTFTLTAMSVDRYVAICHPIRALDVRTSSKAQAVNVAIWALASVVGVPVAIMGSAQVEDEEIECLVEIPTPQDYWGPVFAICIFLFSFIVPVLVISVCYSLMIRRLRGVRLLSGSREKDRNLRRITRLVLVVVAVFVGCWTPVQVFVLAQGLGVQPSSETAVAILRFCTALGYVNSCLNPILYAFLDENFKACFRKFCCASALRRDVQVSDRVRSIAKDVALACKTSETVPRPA

| Compound | pA2, rightward shift of the concentration-response curve of N/OFQ for arrestin coupling (BRET, whole cells); value as the sentence prints it, differs from Table 3 (pA2 (-log10 M)) [1] | antagonist potency estimate (pKB), [^35S]GTPγS binding [2] | reversibility of antagonist action on washing [3] |
| --- | --- | --- | --- |
| UFP-101 (peptide) | 9.42 |  |  |
| Cc1cccc2c1CC[C@H](CN1CCC(c3c(Cl)cccc3Cl)CC1)C[C@@H]2O [SB-612111, (-)-cis-1-methyl-7-[[4-(2,6-dichlorophenyl)piperidin-1-yl]methyl]-6,7,8,9-tetrahy dro-5H-benzocyclohepten-5-ol] |  | 9.70 | remains unchanged even after 3 hours of repeated washing |
